{"source": "paper PMC11539218", "about": "(Antimicrobial Agents and Chemotherapy, 2024)", "key": {"[1]": {"system": "L. (L.) infantum promastigotes", "assay": "Mitochondrial membrane electric potential (JC-1, flow cytometry)", "format": "cell-based, Leishmania (L.) infantum", "conditions": "compound 1 169.2 µM, CCCP 10 µM; 2 and 4 h; JC-1 BL-2/BL-1 ratio; vs untreated", "method": "Promastigotes (2 × 10^6/well) were treated with compound 1 (169.2 µM) for 2 and 4 h, at 24°C. Then, JC-1 (10 µM) was added and the parasites were incubated for 20 min. Fluorescence was measured in a flow cytometer with an excitation wavelength of 488 nm and emission of 530 (BL-1) and 574 nm (BL-2). Mitochondrial membrane potential was established through the ratio of BL-2/BL-1 channels ([19]). Carbonyl cyanide m-chlorophenylhydrazone (CCCP) (10 µM) was employed as positive control and untreated parasites as negative control."}, "[2]": {"system": "L. (L.) infantum promastigotes", "format": "cell-based, Leishmania (L.) infantum", "conditions": "compound 1 169.2 µM, sodium azide 10 mM; 2 and 4 h; H2DCFDA; vs untreated", "method": "Promastigotes (2 × 10^6/well) were treated with compound 1 (169.2 µM) for 2 and 4 h, at 24°C. Later, H2DCFDA (5 µM) was added and the parasites were incubated for 15 min. Fluorescence was monitored in a spectrofluorometer with excitation and emission wavelengths of 485 and 535 nm, respectively ([19]). Sodium azide (10 mM) was employed as positive control and untreated parasites as negative control."}, "[3]": {"system": "L. (L.) infantum promastigotes", "assay": "DNA content / integrity (agarose gel electrophoresis)", "format": "cell-based, Leishmania (L.) infantum", "conditions": "compound 1 169.2 µM, H2O2 10 mM; 24 h; 2% agarose gel", "method": "Promastigotes (1 × 10^7/well) were treated with compound 1 (169.2 μM) in M199 medium supplemented with 10% FBS and 0.25% hemin, pH 7.2, for 24 h at 24°C. Then, the genetic material was extracted using the QIAamp DNA Mini Kit, according to the manufacturer’s instructions. Total DNA quantification was performed in a NanoDrop ND-1000 spectrophotometer (260/280 nm). The purified genetic material (300 ng) was analyzed by electrophoresis for 1 h at […] in a 2% agarose gel with ethidium bromide (0.5 µg/mL). Visualization was performed under UV light in a MiniBIS Pro transilluminator (DNR Bio Imaging System) ([21]). H2O2 (10 mM) was employed as positive control and untreated parasites as negative control ([26])."}, "[4]": {"system": "L. (L.) infantum promastigotes", "assay": "Cell cycle (propidium iodide, flow cytometry)", "format": "cell-based, Leishmania (L.) infantum", "conditions": "24 h; compound 1 169.2 µM, miltefosine 25 µM", "method": "Promastigotes (2 × 10^6/well) in exponential phase, were treated with compound 1 (169.2 µM) in M199 medium supplemented with 10% FBS and 0.25% hemin, pH 7.2, for 24 h at 24°C. In sequence, 70% (vol/vol) ice-cold ethanol was used for cell permeabilization overnight at −20°C. Then, the parasites were incubated with propidium iodide (10 µg/mL) and RNase A (20 µg/mL) for 30 min. […] Miltefosine (25 µM) was employed as positive control and untreated parasites as negative control ([25])."}, "L. (L.) donovani": {"system": "L. (L.) donovani", "design": "method as in PMID 29061745", "conditions": "with subsequent increase in Ca2+ and collapse of mitochondrial membrane potential; cited from earlier work"}, "[5]": {"design": "method as in PMID 34695563", "conditions": "plasma half-life; cited from earlier work"}, "[6]": {"system": "Peritoneal macrophages infected with L. (L.) infantum", "assay": "Cytokines in infected macrophages (ELISA)", "format": "cell-based, BALB/c mice", "conditions": "positive control 5 µg/mL", "method": "L. (L.) infantum (MHOM/BR/1972/LD) promastigotes were maintained in M199 medium supplemented with 10% FBS and 0.25% hemin, pH 7.2 at 24°C. Amastigotes were isolated from golden hamsters (M. auratus) by differential centrifugation of infected spleens and the parasite’s number was determined according to Stauber ([14]). Peritoneal macrophages were obtained from the peritoneal cavity of BALB/c mice and maintained in RPMI-1640 medium supplemented with 10% FBS, pH 7.2 at 37°C.\nPeritoneal macrophages (1 × 10^6/well) were infected with L. (L.) infantum […] (10:1 amastigotes/macrophage) for 24 h, at 37°C with 5% CO2. Subsequently, compound 1 (10 and 60 µM) was added and the incubation followed the same conditions described above. Cell supernatants were collected after 48 and 72 h and the cytokines (IL-4, IL-10, IL-12, and INF-γ) were measured using the BD OptEIA Mouse ELISA set kits, according to the manufacturer’s instructions. Concanavalin A (5 µg/mL) was employed as positive control and untreated cells as negative control."}, "[7]": {"system": "L. (L.) infantum promastigotes", "assay": "Plasma membrane permeability (Sytox Green)", "format": "cell-based, Leishmania (L.) infantum", "conditions": "compound 1 169.2 µM, Triton X-100 0.5%, up to 4 h", "method": "Promastigotes (2 × 10^6/well) were pretreated with Sytox Green (1 µM) for 15 min, at 24°C. Then, compound 1 (169.2 µM) was added and the fluorescence was monitored every 20 min up to 4 h in a spectrofluorometer, with excitation and emission wavelengths of 485 and 535 nm, respectively ([17]). Triton X-100 (0.5% vol/vol) was employed as positive control and untreated parasites as negative control ([18])."}}, "data": [{"compound": "N#CC(C#N)=NNc1cccc(Cl)c1", "note": "[CCCP, Carbonyl cyanide m-chlorophenylhydrazone, reference compound]", "values": [{"measurement": "mitochondrial membrane electric potential (ΔΨm)", "setting": "[1]", "value": "Maximum depolarization"}]}, {"compound": "[N-]=[N+]=[N-].[Na+]", "note": "[sodium azide, Sodium azide, reference compound]", "values": [{"measurement": "ROS levels", "setting": "[2]", "value": "increased ROS production"}]}, {"compound": "OO", "note": "[H2O2, reference compound]", "values": [{"measurement": "integrity of the genetic content (DNA)", "setting": "[3]", "value": "DNA fragmentation"}]}, {"compound": "CCCCCCCCCCCCCCCCOP(=O)([O-])OCC[N+](C)(C)C", "note": "[Miltefosine, reference compound]", "values": [{"measurement": "Proportion of parasites in different phases of the cell cycle (% ± SD): G0/G1", "setting": "[4]", "value": "53.8 ± 0.1", "unit": "%"}, {"measurement": "Proportion of parasites in different phases of the cell cycle (% ± SD): M/G2", "setting": "[4]", "value": "18.1 ± 0.4", "unit": "%"}, {"measurement": "Proportion of parasites in different phases of the cell cycle (% ± SD): S", "setting": "[4]", "value": "10.5 ± 0.3", "unit": "%"}, {"measurement": "Proportion of parasites in different phases of the cell cycle (% ± SD): Sub G0", "setting": "[4]", "value": "7.1 ± 0.6", "unit": "%"}, {"measurement": "effect on acidocalcisomes", "setting": "L. (L.) donovani", "value": "alkalinization of acidocalcisomes"}, {"measurement": "T1/2", "setting": "[5]", "value": "approximately 126 h"}]}, {"compound": "concanavalin A [reference compound]", "values": [{"measurement": "production of cytokines (IL-4, IL-10, IL-12, INF-γ)", "setting": "[6]", "value": "tendency to increase"}]}, {"compound": "Triton X-100 [reference compound]", "values": [{"measurement": "plasma membrane permeability", "setting": "[7]", "value": "significative permeabilization"}]}]}
